This is an account of results in PMC6797236, “Bacillus subtilis PgcA moonlights as a phosphoglucosamine mutase in support of peptidoglycan synthesis” (PLoS Genetics, 2019).

Common to all, as to type: biochemical
Experiment [1] has as its target T1, PgcA (Bacillus subtilis, UniProt P18159).
T1 construct: N-terminal 6xHis tag, tag cleavage not mentioned; expressed in E. coli DH5alpha, Ni-NTA purified
T1 sequence (P18159 1-581): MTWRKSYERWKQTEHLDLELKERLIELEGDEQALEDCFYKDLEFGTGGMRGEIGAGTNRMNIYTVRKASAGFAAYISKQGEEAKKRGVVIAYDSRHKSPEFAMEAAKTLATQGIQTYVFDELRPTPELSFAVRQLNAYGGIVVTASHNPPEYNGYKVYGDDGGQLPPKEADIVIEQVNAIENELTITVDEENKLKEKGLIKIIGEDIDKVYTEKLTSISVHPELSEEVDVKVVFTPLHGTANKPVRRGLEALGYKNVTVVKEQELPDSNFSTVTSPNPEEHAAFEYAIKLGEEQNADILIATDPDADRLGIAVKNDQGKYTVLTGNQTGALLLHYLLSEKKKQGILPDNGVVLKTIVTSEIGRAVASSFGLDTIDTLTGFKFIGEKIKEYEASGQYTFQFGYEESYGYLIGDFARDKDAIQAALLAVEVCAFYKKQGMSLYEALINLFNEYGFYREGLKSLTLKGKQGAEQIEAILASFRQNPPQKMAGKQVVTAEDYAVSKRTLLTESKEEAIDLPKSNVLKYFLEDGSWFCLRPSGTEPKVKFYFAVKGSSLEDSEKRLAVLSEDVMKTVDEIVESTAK
Nature of the experiment: LC-MS assay of glucose 6-phosphate formation. Conditions: 5 mM MgCl2, 20 uM glucose-1,6-bisphosphate, 50 mM Tris-HCl pH 8.0; PGM reaction.

Another experiment concerns the target T2, GlmM (Bacillus subtilis, UniProt O34824).
T2 construct: purified protein; tag and expression of GlmM not described separately
T2 sequence (O34824 1-448): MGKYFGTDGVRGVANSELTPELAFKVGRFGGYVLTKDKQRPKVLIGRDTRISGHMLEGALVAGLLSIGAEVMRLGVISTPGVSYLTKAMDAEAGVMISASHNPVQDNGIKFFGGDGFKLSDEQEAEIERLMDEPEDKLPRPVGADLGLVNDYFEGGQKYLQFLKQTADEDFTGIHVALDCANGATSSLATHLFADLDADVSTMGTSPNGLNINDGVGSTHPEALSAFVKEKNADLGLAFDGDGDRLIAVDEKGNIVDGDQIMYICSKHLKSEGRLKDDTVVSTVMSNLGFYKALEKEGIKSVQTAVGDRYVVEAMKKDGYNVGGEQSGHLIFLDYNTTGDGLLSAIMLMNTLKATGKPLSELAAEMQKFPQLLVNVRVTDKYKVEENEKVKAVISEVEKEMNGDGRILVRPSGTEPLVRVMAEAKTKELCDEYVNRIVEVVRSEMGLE
Nature of the experiment: LC-MS assay of glucosamine 6-phosphate formation. Conditions: 5 mM MgCl2, 0.7 mM glucose-1,6-bisphosphate, 50 mM Tris-HCl pH 8.0; PNGM reaction.

Experiment [2] deals with T1, PgcA. Nature of the experiment: LC-MS assay of glucosamine 6-phosphate formation. The conditions noted are these: 5 mM MgCl2, 20 uM glucose-1,6-bisphosphate, 50 mM Tris-HCl pH 8.0; PNGM reaction.

Consider `O=P(O)(O)O[C@H]1O[C@H](CO)[C@@H](O)[C@H](O)[C@H]1O` [Glc-1-P], for which the KM entry on PgcA [1] is “Both PgcA and PgcA G47S were equally active in the PGM reaction”.
In the case of `N[C@H]1[C@@H](OP(=O)(O)O)O[C@H](CO)[C@@H](O)[C@@H]1O` [GlcN-1-P], the KM result is recorded as “GlmM from B. subtilis, which had an affinity for GlcN-1-P substrate” on GlmM and “using GlcN-1-P as substrate to monitor the PNGM reaction” at PgcA [2].
